Measured values reported in patent publication US8486996B2, “Aroylfuranes and aroylthiophenes” (Basilea Pharmaceutica AG, priority 2006, dated 2013).
Where two headings read alike, the source gives them in different places.

Experiments:
Assay type in all cases: cell-based
tumor cells [1] = experiment: Mitochondrial membrane potential, JC-1 (read-out 48 h); settings: JC-1, 48 h
Procedure: (§1) D) Mitochondrial Membrane Potential
(§2) This assay is performed in 96 well tissue culture plates. Appropriate number of cells (adherent cells: 3-5*10^3, suspension cells: 8-10*10^3) are being seeded out in 80 μl complete medium. Adherent cells are incubated for 24 h for proper spreading out before addition of test compounds while suspension cells are immediately treated with test compounds after seeding out. The test compounds are added in 20 μl complete medium containing max 5% DMSO. […] After 24 h or 48 h incubation at culture conditions, 10 μl medium containing JC-1 (Molecular Probes, T-3168) at 2-5 μg/ml are added to each well. The assay plates are then further incubated for 30 minutes and subsequently analyzed with a standard inverted fluorescence microscope by using the FITC and TRITC filters.
(§3) The readout allows the determination of the fraction of cells which show a dissipation of the mitochondrial membrane potential strongly indicating an apoptotic cell death as a function of the treatment. The scores A, B, C and D are explained at the end of the Table.

[2] = as above; settings: PBL, JC-1, 48 h
Procedure: as §1, §2, §3

tumor cells [3] = experiment: Hoechst 33342 nuclear staining (48 h read-out)
Procedure: (§4) A) Hoechst 33342 Nuclear Staining
(§5) This assay is performed in 96 well tissue culture plates. Appropriate number of cells (adherent cells: 3-5*10^3, suspension cells: 8-10*10^3) are being seeded out in 80 μl complete medium. Adherent cells are incubated for 24 h for proper spreading out before addition of test compounds while suspension cells are immediately treated with test compounds after seeding out. The test compounds are added in 20 μl complete medium containing max 5% DMSO. The final compound concentrations in the assays are in the range of 0.001 μM-10 μM. After 24 h or 48 h incubation at culture conditions, 10 μl medium containing Hoechst 33342 dye (Sigma B-2261) at 2-5 μg/ml are added to each well. The assay plates are then further incubated for 30 minutes and subsequently analyzed with a standard inverted fluorescence microscope.
(§6) The readout allows the determination of the fraction of apoptotic nuclei as well as other morphological criteria specific for apoptosis as a function of the treatment. The scores A, B, C and D are explained at the end of the Table.

[4] = Hoechst 33342 nuclear staining (48 h read-out)
Procedure: as §4, §5, §6

tumor cells [5] = experiment: MTS proliferation assay (72 h read-out)
Procedure: (§7) B) MTS Proliferation Assay
(§8) The assay is performed in 96 well tissue culture plates. The cells (range: 1.5*10^3-10^4) are seeded out in 80 μl complete medium 24 h prior to compound treatment. The test compounds are added in 20 μl complete medium containing max 5% DMSO. The final compound concentrations in the assays are in the range of 0.001 μM-10 μM. The assay plates are incubated for 72 h at culture conditions. The MTS reagent is prepared according to the manufacturer's protocol (Promega G1111). 20 μl MTS reagent are added to each well; the assay plates are quickly spun and incubated for another 3 h at culture conditions. Subsequently, the plates are shortly shaked and absorption measured with a microplate-reader at 492 nm. The scores A, B, C and D are explained at the end of the Table.

[6] = MTS proliferation assay (72 h read-out); settings: MRC5 cells
Procedure: as §7, §8

[7] = HeLa cells, read-out: Mitochondrial membrane potential (read-out 48 h) HeLa
[8] = Jily cells, read-out: Mitochondrial membrane potential (read-out 48 h) Jily
[9] = Jurkat cells, read-out: Mitochondrial membrane potential (read-out 48 h) Jurkat
[10] = MCF7 cells, read-out: Mitochondrial membrane potential (read-out 48 h) MCF7
[11] = HeLa cells, read-out: Hoechst 33342 nuclear staining EC50, HeLa
[12] = Jily cells, read-out: Hoechst 33342 nuclear staining EC50, Jily
[13] = Jurkat cells, read-out: Hoechst 33342 nuclear staining EC50, Jurkat
[14] = MRC5 cells, read-out: Hoechst 33342 nuclear staining EC50, MRC5
[15] = PBL, read-out: Hoechst 33342 nuclear staining EC50, PBL
[16] = HT1080 cells, read-out: MTS proliferation assay IC50, HT1080
[17] = HeLa cells, read-out: MTS proliferation assay IC50, HeLa
[18] = Jily cells, read-out: MTS proliferation assay IC50, Jily
[19] = Jurkat cells, read-out: MTS proliferation assay IC50, Jurkat

EC50 (tumor cells [1]; [7])	EC50 (tumor cells [1]; [8])	EC50 (tumor cells [1]; [9])	EC50 (tumor cells [1]; [10])	EC50 [2]	EC50 (tumor cells [3]; [11])	EC50 (tumor cells [3]; [12])	EC50 (tumor cells [3]; [13])	EC50 [4, 15]	IC50 (tumor cells [5]; [16])	IC50 (tumor cells [5]; [17])	IC50 (tumor cells [5]; [18])	IC50 (tumor cells [5]; [19])	Compound	EC50 [4, 14]	IC50 [6]
10 to 100 nM	10 to 100 nM	10 to 100 nM	> 1000 nM	> 1000 nM	10 to 100 nM	< 10 nM	< 10 nM	> 1000 nM	< 10 nM	10 to 100 nM	< 10 nM	< 10 nM	CCOc1ccccc1C(=O)c1oc2ccc(OC)cc2c1N [Example 47]	10 to 100 nM	10 to 100 nM
100 to 1000 nM	10 to 100 nM	10 to 100 nM	> 1000 nM	> 1000 nM	100 to 1000 nM	10 to 100 nM	10 to 100 nM	> 1000 nM	10 to 100 nM	100 to 1000 nM	10 to 100 nM	10 to 100 nM	CCOc1ccc(F)cc1C(=O)c1oc2ccc(OC)cc2c1NC(=O)OC [Example 49]	> 1000 nM	10 to 100 nM
> 1000 nM	> 1000 nM	100 to 1000 nM	> 1000 nM	> 1000 nM	> 1000 nM	100 to 1000 nM	100 to 1000 nM	> 1000 nM	> 1000 nM	> 1000 nM	100 to 1000 nM	100 to 1000 nM	CCOc1ccc(F)cc1C(=O)c1oc2ccc(OC)cc2c1NS(=O)(=O)N(C)C [Example 50]	> 1000 nM	> 1000 nM
> 1000 nM	> 1000 nM	> 1000 nM	> 1000 nM	> 1000 nM	> 1000 nM	> 1000 nM	> 1000 nM	> 1000 nM	> 1000 nM	> 1000 nM	> 1000 nM	–	CCOc1ccccc1C(=O)c1oc2ccc(NC(=O)OC(C)(C)C)cc2c1N [Example 51]	> 1000 nM	> 1000 nM
> 1000 nM	100 to 1000 nM	100 to 1000 nM	> 1000 nM	> 1000 nM	> 1000 nM	100 to 1000 nM	100 to 1000 nM	> 1000 nM	> 1000 nM	> 1000 nM	100 to 1000 nM	–	CCOc1ccccc1C(=O)c1oc2ccc(N)cc2c1N [Example 52]	> 1000 nM	> 1000 nM
100 to 1000 nM	100 to 1000 nM	10 to 100 nM	10 to 100 nM	> 1000 nM	100 to 1000 nM	10 to 100 nM	10 to 100 nM	> 1000 nM	10 to 100 nM	10 to 100 nM	10 to 100 nM	–	CCOc1ccc(F)cc1C(=O)c1oc2ccc(OC)cc2c1NS(C)(=O)=O [Example 54]	100 to 1000 nM	10 to 100 nM
> 1000 nM	10 to 100 nM	100 to 1000 nM	100 to 1000 nM	> 1000 nM	> 1000 nM	100 to 1000 nM	100 to 1000 nM	> 1000 nM	100 to 1000 nM	100 to 1000 nM	10 to 100 nM	10 to 100 nM	CCOc1ccccc1C(=O)c1oc2ccccc2c1N [Example 55]	> 1000 nM	100 to 1000 nM
100 to 1000 nM	100 to 1000 nM	10 to 100 nM	100 to 1000 nM	> 1000 nM	100 to 1000 nM	10 to 100 nM	10 to 100 nM	> 1000 nM	10 to 100 nM	10 to 100 nM	< 10 nM	< 10 nM	CCOc1ccc(F)cc1C(=O)c1oc2ccccc2c1N [Example 56]	> 1000 nM	10 to 100 nM
100 to 1000 nM	10 to 100 nM	10 to 100 nM	100 to 1000 nM	> 1000 nM	10 to 100 nM	10 to 100 nM	10 to 100 nM	> 1000 nM	10 to 100 nM	10 to 100 nM	< 10 nM	< 10 nM	CCOc1ccc(F)cc1C(=O)c1cc2cc(COC)ccc2o1 [Example 57]	100 to 1000 nM	10 to 100 nM
> 1000 nM	100 to 1000 nM	10 to 100 nM	> 1000 nM	> 1000 nM	100 to 1000 nM	100 to 1000 nM	10 to 100 nM	> 1000 nM	10 to 100 nM	100 to 1000 nM	10 to 100 nM	10 to 100 nM	CCOc1ccccc1C(=O)c1oc2ccc([N+](=O)[O-])cc2c1N [Example 59]	> 1000 nM	100 to 1000 nM
100 to 1000 nM	10 to 100 nM	10 to 100 nM	> 1000 nM	> 1000 nM	100 to 1000 nM	10 to 100 nM	10 to 100 nM	> 1000 nM	10 to 100 nM	100 to 1000 nM	10 to 100 nM	10 to 100 nM	COc1ccc2oc(C(=O)c3ccccc3OCC(F)(F)F)c(N)c2c1 [Example 60]	> 1000 nM	100 to 1000 nM
10 to 100 nM	< 10 nM	< 10 nM	> 1000 nM	> 1000 nM	10 to 100 nM	< 10 nM	< 10 nM	> 1000 nM	< 10 nM	10 to 100 nM	< 10 nM	< 10 nM	CCOc1ccc(F)cc1C(=O)c1oc2ccc(C)cc2c1N [Example 62]	> 1000 nM	< 10 nM
> 1000 nM	> 1000 nM	> 1000 nM	> 1000 nM	> 1000 nM	> 1000 nM	> 1000 nM	> 1000 nM	> 1000 nM	> 1000 nM	> 1000 nM	> 1000 nM	> 1000 nM	CCOc1ccc(F)cc1C(=O)c1cc2cc(OCc3ccccc3)ccc2o1 [Example 63]	> 1000 nM	> 1000 nM
10 to 100 nM	10 to 100 nM	< 10 nM	> 1000 nM	> 1000 nM	10 to 100 nM	10 to 100 nM	< 10 nM	> 1000 nM	< 10 nM	10 to 100 nM	< 10 nM	< 10 nM	CCOc1ccc(F)cc1C(=O)c1cc2cc(OC(C)=O)ccc2o1 [Example 65]	100 to 1000 nM	< 10 nM
100 to 1000 nM	10 to 100 nM	10 to 100 nM	> 1000 nM	> 1000 nM	100 to 1000 nM	10 to 100 nM	10 to 100 nM	> 1000 nM	100 to 1000 nM	10 to 100 nM	< 10 nM	–	C=CCOc1ccc2oc(C(=O)c3cc(F)ccc3OCC)cc2c1 [Example 67]	> 1000 nM	10 to 100 nM
> 1000 nM	100 to 1000 nM	100 to 1000 nM	> 1000 nM	> 1000 nM	100 to 1000 nM	100 to 1000 nM	100 to 1000 nM	> 1000 nM	10 to 100 nM	10 to 100 nM	10 to 100 nM	–	CCOc1ccc(F)cc1C(=O)c1cc2cc(OC(C)C)ccc2o1 [Example 68]	100 to 1000 nM	10 to 100 nM
